Results: the kinase profiling compilation of Christmann-Franck et al. (2016)

Assays:
Experiment in all cases: KINOMEscan competition binding
Details in all cases: compound 10.0 µM
[1] = target: NTRK1 (human) (UniProt P04629)
[2] = target: CSNK1D (human) (UniProt P48730)
[3] = target: RIPK4 (human) (UniProt P57078)
[4] = target: MAP3K4 (human) (UniProt Q9Y6R4)
[5] = target: IRAK3 (human) (UniProt Q9Y616)
[6] = target: CDC42BPB (human) (UniProt Q9Y5S2)
[7] = target: DDR1 (human) (UniProt Q08345)
[8] = target: FGFR4 (human) (UniProt P22455)
[9] = target: PAK4 (human) (UniProt O96013)
[10] = target: SRPK3 (human) (UniProt Q9UPE1)
[11] = target: MARK2 (human) (UniProt Q7KZI7)
[12] = target: DCLK1 (human) (UniProt O15075)
[13] = target: EPHB3 (human) (UniProt P54753)
[14] = target: BMPR1A (human) (UniProt P36894)
[15] = target: MLTK (human) (UniProt Q9NYL2)
[16] = target: PHKG2 (human) (UniProt P15735)
[17] = target: ACVR2A (human) (UniProt P27037)
[18] = target: AKT1 (human) (UniProt P31749)
[19] = target: CDK7 (human) (UniProt P50613)
[20] = target: PLK2 (human) (UniProt Q9NYY3)
[21] = target: MAP2K1 (human) (UniProt Q02750)
[22] = target: CAMKK2 (human) (UniProt Q96RR4)
[23] = target: RPS6KA5 KD1 (human) (UniProt O75582)
[24] = target: PAK6 (human) (UniProt Q9NQU5)
[25] = target: MARK1 (human) (UniProt Q9P0L2)
[26] = target: STK4 (human) (UniProt Q13043)
[27] = target: PRKG2 (human) (UniProt Q13237)
[28] = target: CDK15 (human) (UniProt Q96Q40)
[29] = target: PRKX (human) (UniProt P51817)
[30] = target: PRKACA (human) (UniProt P17612)
[31] = target: MAP3K12 (human) (UniProt Q12852)
[32] = target: TLK1 (human) (UniProt Q9UKI8)
[33] = system: MET (human), P08581 [M1250T]
[34] = target: IRAK4 (human) (UniProt Q9NWZ3)
[35] = target: ERBB4 (human) (UniProt Q15303)
[36] = target: HIPK3 (human) (UniProt Q9H422)
[37] = target: ACVR1B (human) (UniProt P36896)
[38] = target: ULK2 (human) (UniProt Q8IYT8)
[39] = target: ERN1 (human) (UniProt O75460)
[40] = target: PRKCQ (human) (UniProt Q04759)
Chain of PRKCQ (human) (Q04759 whole entry, looked up): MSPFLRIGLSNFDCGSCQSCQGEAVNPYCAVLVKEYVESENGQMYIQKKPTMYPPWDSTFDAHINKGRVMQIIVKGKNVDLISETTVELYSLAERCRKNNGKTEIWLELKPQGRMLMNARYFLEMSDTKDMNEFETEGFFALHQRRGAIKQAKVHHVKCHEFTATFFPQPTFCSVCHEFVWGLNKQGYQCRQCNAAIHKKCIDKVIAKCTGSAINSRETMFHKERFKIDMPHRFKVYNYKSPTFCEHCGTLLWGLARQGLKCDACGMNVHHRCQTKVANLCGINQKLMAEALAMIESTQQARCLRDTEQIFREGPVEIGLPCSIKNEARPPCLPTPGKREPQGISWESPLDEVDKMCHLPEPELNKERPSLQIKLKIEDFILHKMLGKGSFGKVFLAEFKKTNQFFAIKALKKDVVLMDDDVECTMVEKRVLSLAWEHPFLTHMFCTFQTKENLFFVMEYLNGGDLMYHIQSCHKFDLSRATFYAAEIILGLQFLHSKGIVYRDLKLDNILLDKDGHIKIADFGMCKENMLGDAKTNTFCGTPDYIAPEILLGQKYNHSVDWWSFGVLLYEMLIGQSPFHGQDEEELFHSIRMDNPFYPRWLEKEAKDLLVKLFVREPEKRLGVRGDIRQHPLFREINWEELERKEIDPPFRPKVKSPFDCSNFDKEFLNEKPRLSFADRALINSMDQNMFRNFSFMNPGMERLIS

Chain of BMPR1A (human) (P36894 whole entry, looked up): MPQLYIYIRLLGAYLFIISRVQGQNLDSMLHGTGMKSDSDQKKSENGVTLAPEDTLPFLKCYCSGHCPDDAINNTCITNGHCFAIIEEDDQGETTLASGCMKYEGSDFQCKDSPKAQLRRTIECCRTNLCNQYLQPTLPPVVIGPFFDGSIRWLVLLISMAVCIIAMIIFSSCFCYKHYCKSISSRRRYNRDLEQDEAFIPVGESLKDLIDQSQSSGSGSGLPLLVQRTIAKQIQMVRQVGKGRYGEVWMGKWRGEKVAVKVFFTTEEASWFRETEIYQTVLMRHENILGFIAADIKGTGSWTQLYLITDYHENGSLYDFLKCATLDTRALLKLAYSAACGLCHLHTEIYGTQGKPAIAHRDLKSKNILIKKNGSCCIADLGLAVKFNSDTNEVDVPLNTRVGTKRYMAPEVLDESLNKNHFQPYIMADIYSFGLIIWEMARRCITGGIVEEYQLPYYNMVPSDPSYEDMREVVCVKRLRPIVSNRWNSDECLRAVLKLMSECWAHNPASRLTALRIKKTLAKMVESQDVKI
Chain of PAK6 (human) (Q9NQU5 whole entry, looked up): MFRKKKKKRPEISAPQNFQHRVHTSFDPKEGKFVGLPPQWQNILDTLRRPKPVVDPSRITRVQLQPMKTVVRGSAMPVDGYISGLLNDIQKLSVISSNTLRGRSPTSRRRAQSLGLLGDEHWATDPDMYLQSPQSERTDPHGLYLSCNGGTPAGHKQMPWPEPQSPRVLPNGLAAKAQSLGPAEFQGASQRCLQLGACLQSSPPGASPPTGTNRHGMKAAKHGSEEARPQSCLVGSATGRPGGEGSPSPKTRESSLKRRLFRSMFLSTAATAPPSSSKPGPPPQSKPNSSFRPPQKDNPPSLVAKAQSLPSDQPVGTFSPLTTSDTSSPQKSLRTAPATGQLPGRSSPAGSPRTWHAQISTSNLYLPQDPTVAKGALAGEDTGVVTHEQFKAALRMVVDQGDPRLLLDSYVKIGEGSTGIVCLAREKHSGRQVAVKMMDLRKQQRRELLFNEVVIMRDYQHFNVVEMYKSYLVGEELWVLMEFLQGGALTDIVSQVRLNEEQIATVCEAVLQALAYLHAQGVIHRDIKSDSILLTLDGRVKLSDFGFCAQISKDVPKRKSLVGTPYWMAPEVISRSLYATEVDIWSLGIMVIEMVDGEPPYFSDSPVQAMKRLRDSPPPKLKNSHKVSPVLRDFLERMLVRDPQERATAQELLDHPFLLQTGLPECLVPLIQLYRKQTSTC
Chain of CAMKK2 (human) (Q96RR4 whole entry, looked up): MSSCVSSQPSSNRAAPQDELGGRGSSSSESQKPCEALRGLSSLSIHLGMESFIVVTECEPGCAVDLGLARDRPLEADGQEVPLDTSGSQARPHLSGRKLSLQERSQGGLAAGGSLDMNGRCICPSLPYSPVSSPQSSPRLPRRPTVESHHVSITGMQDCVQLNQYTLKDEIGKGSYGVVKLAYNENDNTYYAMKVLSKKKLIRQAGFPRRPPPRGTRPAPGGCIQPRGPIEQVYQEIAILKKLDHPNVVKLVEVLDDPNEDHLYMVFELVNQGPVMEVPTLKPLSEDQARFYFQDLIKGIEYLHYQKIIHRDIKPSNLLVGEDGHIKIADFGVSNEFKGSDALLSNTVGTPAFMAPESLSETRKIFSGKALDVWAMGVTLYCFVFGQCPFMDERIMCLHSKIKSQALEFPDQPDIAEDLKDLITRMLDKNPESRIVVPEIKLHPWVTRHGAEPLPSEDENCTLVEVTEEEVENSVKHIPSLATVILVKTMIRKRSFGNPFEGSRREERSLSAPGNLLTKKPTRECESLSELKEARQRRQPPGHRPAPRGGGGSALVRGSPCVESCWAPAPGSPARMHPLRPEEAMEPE
Chain of ACVR2A (human) (P27037 whole entry, looked up): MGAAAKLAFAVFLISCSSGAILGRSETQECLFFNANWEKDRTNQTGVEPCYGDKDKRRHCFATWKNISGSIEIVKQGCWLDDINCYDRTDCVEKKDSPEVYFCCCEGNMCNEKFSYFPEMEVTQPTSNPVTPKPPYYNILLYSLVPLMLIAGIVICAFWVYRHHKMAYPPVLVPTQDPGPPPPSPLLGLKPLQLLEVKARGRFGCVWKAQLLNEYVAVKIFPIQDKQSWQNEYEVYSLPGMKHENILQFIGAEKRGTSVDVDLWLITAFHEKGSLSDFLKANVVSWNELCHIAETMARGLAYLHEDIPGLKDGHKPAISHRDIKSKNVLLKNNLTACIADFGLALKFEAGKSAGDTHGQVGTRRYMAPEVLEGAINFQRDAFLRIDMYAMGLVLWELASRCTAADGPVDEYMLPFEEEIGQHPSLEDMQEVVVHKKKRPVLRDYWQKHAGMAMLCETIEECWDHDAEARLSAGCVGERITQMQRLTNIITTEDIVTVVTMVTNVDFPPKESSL
Chain of SRPK3 (human) (Q9UPE1 whole entry, looked up): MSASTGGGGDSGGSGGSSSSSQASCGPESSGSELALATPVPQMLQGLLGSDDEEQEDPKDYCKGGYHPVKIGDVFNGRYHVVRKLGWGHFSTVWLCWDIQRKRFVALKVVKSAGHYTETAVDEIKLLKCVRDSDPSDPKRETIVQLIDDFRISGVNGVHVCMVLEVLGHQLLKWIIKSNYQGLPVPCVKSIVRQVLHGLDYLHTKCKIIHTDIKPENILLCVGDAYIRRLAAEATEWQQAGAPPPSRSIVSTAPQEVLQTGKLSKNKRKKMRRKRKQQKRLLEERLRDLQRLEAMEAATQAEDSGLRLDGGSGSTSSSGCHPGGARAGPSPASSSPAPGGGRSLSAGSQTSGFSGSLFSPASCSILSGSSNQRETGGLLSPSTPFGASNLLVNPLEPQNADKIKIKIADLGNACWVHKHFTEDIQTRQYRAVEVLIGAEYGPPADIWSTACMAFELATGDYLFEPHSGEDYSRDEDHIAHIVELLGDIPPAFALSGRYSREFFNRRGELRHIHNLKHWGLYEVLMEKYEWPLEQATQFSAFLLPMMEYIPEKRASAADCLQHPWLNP
Chain of EPHB3 (human) (P54753 whole entry, looked up): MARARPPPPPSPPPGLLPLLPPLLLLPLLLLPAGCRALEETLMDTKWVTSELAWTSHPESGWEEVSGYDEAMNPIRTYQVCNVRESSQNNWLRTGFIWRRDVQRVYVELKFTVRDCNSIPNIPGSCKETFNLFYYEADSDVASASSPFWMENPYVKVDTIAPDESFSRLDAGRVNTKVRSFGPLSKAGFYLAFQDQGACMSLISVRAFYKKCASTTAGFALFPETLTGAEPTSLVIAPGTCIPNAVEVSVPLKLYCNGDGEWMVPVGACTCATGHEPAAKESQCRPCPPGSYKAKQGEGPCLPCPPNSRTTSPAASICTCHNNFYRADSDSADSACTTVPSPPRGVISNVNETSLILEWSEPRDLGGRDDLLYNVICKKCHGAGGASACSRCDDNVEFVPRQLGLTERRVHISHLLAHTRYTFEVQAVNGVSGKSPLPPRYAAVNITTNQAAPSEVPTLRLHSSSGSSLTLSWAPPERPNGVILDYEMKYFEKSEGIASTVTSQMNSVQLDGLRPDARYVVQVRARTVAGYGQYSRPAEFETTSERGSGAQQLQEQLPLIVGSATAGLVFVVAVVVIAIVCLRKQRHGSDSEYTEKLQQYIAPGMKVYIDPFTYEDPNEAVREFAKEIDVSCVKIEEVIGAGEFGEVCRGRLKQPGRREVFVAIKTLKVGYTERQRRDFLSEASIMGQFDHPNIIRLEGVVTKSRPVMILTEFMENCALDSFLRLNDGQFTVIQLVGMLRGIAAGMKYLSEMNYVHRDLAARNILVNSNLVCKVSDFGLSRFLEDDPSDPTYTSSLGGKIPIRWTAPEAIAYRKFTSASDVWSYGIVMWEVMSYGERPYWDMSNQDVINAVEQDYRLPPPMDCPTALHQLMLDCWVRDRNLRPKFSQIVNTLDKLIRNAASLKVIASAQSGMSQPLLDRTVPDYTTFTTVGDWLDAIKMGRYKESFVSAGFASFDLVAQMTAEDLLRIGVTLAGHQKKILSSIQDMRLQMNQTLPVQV
Chain of CDK7 (human) (P50613 whole entry, looked up): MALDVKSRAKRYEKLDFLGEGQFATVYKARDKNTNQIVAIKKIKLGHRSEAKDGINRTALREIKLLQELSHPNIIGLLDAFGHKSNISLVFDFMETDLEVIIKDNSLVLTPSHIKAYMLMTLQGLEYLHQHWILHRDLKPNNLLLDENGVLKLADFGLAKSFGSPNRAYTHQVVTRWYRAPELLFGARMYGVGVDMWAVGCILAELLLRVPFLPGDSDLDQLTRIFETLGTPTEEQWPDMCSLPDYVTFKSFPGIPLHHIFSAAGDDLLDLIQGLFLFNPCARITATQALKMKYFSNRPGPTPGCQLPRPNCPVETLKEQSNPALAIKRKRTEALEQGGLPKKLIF

O=c1[nH]c2ccccc2n1C1CCN(Cc2ccc(-c3nc4cc5[nH]cnc5cc4nc3-c3ccccc3)cc2)CC1
kinase still bound, per cent of control [1]: 100% | kinase still bound, per cent of control [2]: 18% | kinase still bound, per cent of control [3]: 87% | kinase still bound, per cent of control [4]: 78% | kinase still bound, per cent of control [5]: 100% | kinase still bound, per cent of control [6]: 83% | kinase still bound, per cent of control [7]: 86% | kinase still bound, per cent of control [8]: 100% | kinase still bound, per cent of control [9]: 74% | kinase still bound, per cent of control [10]: 87% | kinase still bound, per cent of control [11]: 83% | kinase still bound, per cent of control [12]: 86% | kinase still bound, per cent of control [13]: 100% | kinase still bound, per cent of control [14]: 77% | kinase still bound, per cent of control [15]: 92% | kinase still bound, per cent of control [16]: 100% | kinase still bound, per cent of control [17]: 88% | kinase still bound, per cent of control [18]: 77% | kinase still bound, per cent of control [19]: 82% | kinase still bound, per cent of control [20]: 88% | kinase still bound, per cent of control [21]: 83% | kinase still bound, per cent of control [22]: 97% | kinase still bound, per cent of control [23]: 100% | kinase still bound, per cent of control [24]: 85% | kinase still bound, per cent of control [25]: 97% | kinase still bound, per cent of control [26]: 77% | kinase still bound, per cent of control [27]: 91% | kinase still bound, per cent of control [28]: 76% | kinase still bound, per cent of control [29]: 100% | kinase still bound, per cent of control [30]: 100% | kinase still bound, per cent of control [31]: 100% | kinase still bound, per cent of control [32]: 100% | kinase still bound, per cent of control [33]: 28% | kinase still bound, per cent of control [34]: 80% | kinase still bound, per cent of control [35]: 66% | kinase still bound, per cent of control [36]: 87% | kinase still bound, per cent of control [37]: 100% | kinase still bound, per cent of control [38]: 88% | kinase still bound, per cent of control [39]: 66% | kinase still bound, per cent of control [40]: 94%
